According to patent US20250281629A1, “COMPOSITIONS AND METHODS FOR ANTI-PHOSPHOCHOLINE ACTIVE IMMUNOTHERAPY” (Duke University, priority 2022, published 2025):
Where no end group is shown, it is not given here. C11H22NO6P = phosphorylcholine group attached via 2-methacryloyloxyethyl phosphorylcholine

Key:
[1] = test system: mouse anti-PC IgM monoclonal antibody (Clone: BH8); experiment: ELISA for measuring nanofiber epitope reactivity; format: binding; conditions: nanofibers coated at 0.2 mM; PC-BSA positive control
Description: ELISA for Measuring Nanofiber Epitope Reactivity. The reactivity of PC conjugation methods was determined via binding of a mouse anti-PC IgM monoclonal antibody (Clone: BH8) (Sigma, MABF2084) to nanofibers. Nanofibers were diluted to 0.2 mM and coated onto 96-well plates at 4° C. overnight. PC-BSA (Biosearch Technologies, PC-1011-10) was coated at 20 μg/mL in 1×PBS overnight as a positive control, and PBS was used as a negative control. The next day, the plates were washed using 1×PBS with 0.05% Tween 20 (1×PBST) and then blocked with Superblock blocking buffer solution (Thermo Fisher, 37515) three times. This was followed by the addition anti-PC IgM which was serially diluted in 1% BSA in 1×PBST by 5-fold steps beginning from 1:100 (5 μg/mL) and allowed to incubate for 2 h at room temperature. Anti-PC IgM bound to nanofibers was then detected with HRP-conjugated goat anti-mouse IgM (Southern Biotech, 1021-05) and the absorbance values at 450 nm were measured.

C57BL/6 mice = experiment: Serum anti-PC antibody responses of immunized mice via ELISA (PC-BSA coated); format: in vivo, mouse
Description: Mice and Immunizations. Female C57BL/6 mice (Envigo) age 6-10 weeks were used to initiate experiments except for the Il10^−/− colitis study where female B6.129P2-Il10^tm1Cgn/J (The Jackson Laboratory) mice age 5-7 weeks were used. While female mice were used for most experiments, age-matched male C57BL/6 mice (Envigo) were used in a one cycle acute DSS colitis model to confirm efficacy across sexes. Mice were housed at Duke University. All experimental procedures were performed on protocols (A264-18-11 and A199-21-09) approved by the Duke University Institutional Animal Care and Use Committee (IACUC). For subcutaneous immunizations, anesthetized mice were injected once behind each shoulder with 50 μL of 2 mM peptide nanofiber solution or 1×PBS. For intraperitoneal immunizations, mice were injected with 100 μL of 2 mM peptide nanofiber solution or 1×PBS. Nanofiber immunizations with adjuvant contained 10 μg CpG (ODN 1826, IAX-200-002-3001, Innaxon). For injections of only CpG, 10 μg of CpG in 100 μL 1×PBS was used. Mice were typically given three immunizations, with the specific boosting schedules stated in each figure caption, usually at weeks 0, 2, and 4, as this was determined to produce robust antibody responses in a short time frame.
(§1) Detection of Anti-PC Antibody Responses via ELISA. Anti-PC antibody responses in serum collected from the submandibular vein in mice were measured using ELISA. Briefly, plates were coated with 20 μg/mL PC-BSA (Biosearch Technologies, PC-1011-10) in 1×PBS or just 1×PBS at 4° C. overnight. The next day, the plates were washed using 1×PBST (1×PBS with 0.05% Tween 20) and then blocked three times with Superblock blocking buffer solution (Thermo Fisher, 37515). Serum diluted from 1:10^2 to 1:10^5 in 1% BSA in 1×PBST was the added to the plate and allowed to incubate for 2 h at room temperature. Anti-PC IgG was detected using HRP-conjugated Fcγ fragment-specific goat anti-mouse IgG (Jackson Immuno Research, 15-035-071). IgG subclasses and IgM anti-PC antibodies were detected using Southern Biotech HRP-conjugated goat anti-mouse antibodies (IgG1, IgG2b, IgG2c, IgG3, & IgM: 5300-05B). Area under the curve (AUC) measurements were calculated using background-subtracted absorbance values at dilutions from 1:10^2 to 1:10^5. Antibody titers were defined using an absorbance cutoff above background of 0.2 OD, where titer 2 represents an OD value greater than 0.2 at 1:10^2 dilution and so on up to titer 5 at 1:10^5 dilution.

[2] = test system: CD4^+ T-cell depleted mice; experiment: Anti-PC responses in CD4+ T-cell depleted mice; format: in vivo, mouse; conditions: for anti-PC IgM in the absence of CD4+ T cells: anti-CD4 antibody; for main anti-PC IgG subclass in CD4+ T cell-depleted mice: week 3
Description: as §1
T Cell ELISpot. T-cell responses were measured using ELISpot. Mice were euthanized 6 days after booster immunization and splenocytes were isolated using Lympholyte-M (Cedarlane, c15031). Splenocytes were stimulated with either media (negative control), Concanavalin A (ConA) (Sigma, C5275) (positive control), or PADRE peptide (1 μM) and then plated at 250,000 cells/well on IL-4 and IFN-γ capture antibody-coated 96-well ELISpot plates (Millipore, MSIPS4510). IL-4 (BD, 551878) and IFNγ (BD, 551881) detection antibodies followed by streptavidin-alkaline phosphatase (Mabtech, 3310-0) and Sigmafast BCIP/NBT (Sigma, B5655) were used to develop cell spots. The quantification of cell spots was then outsourced to Zellnet Consulting Services which uses a Zeiss KS ELISPOT reader. ELISpot counts shown represent spot counts after the subtraction of spots in the negative control wells for each sample.
CD4 T cell Depletion. Mice were given 200 μg of either anti-mouse CD4 (InVivoMAb, clone GK1.5, BioXCell, BE0003-1) or isotype control (InVivoMAb rat IgG2b isotype control anti-KLH, clone LTF-2, BioXCell, BE0090) antibodies in 100 μL InVivoPure pH 6.5 dilution buffer (BioXCell, IP0065) via i.p. injection at days −3, −1, 3, 7, 11, 15, and 19. On days 0 and 22, cells from the spleen, draining lymph nodes (axial, brachial, and inguinal), and mesenteric lymph nodes of unimmunized mice were isolated via physical separation using a 70 μm filter in order to verify CD4^+ T-cell depletion (FIGS. 11A-11E, representative flow cytometry shown in FIG. 12). The cells were treated with mouse BD Fc Block (Clone: 2.4G2) (BD Biosciences, 553142) in flow buffer on ice for 30 min and then washed and stained with antibodies against the following markers: CD4-FITC (Clone: GK1.5) (BD Biosciences, 557307), CD45-PE (Clone: 30-F11) (BioLegend, 103106), CD8a-PE-Cy7 (Clone: 53-6.7 (BD Biosciences, 552877), and CD3e-BV605 (Clone: 145-2C11) (BD Biosciences, 563004) in flow buffer for 30 min on ice. Cells were then washed in flow buffer and stained with DAPI. Flow cytometry was conducted on a BD FACSCanto II cytometer and the results were analyzed using FlowJo software. To determine the importance of PADRE T-cell epitope inclusion in immunizations, anti-CD4 or isotype control antibody-administered mice were immunized on days 0 and 14, with anti-PC antibodies measured at days 0, 7, and 22 via ELISA and T-cell responses measured on day 22 via ELISpot.

[3] = i.p. day 0 and 14, with PADRE-Q11 and CpG

Substance | binding of anti-PC mAb to nanofibers [1] | antibody response against PC-BSA (serum total anti-PC IgG) (C57BL/6 mice; s.c. or i.p., weeks 0, 3, 11, with PADRE-Q11, PC-Q11 vs pa-PC-Q11) | total anti-PC IgG production, dependence on CD4+ T cells [2, 3] | anti-PC IgM in the absence of CD4+ T cells [2, 3] | main anti-PC IgG subclass in CD4+ T cell-depleted mice [2] | anti-PC antibody levels on increasing epitope content 2.5 times (C57BL/6 mice; 0.5 mM (25%) vs 0.2 mM (10%) PCM-Q11, i.p. with CpG) | anti-PC IgG responses, PCM-Q11 vs PC-Q11 (C57BL/6 mice; i.p., weeks 0, 2, 4, both coassembled with PADRE-Q11) | anti-PC IgM, isotype control vs CD4-depleted [2, 3]
C11H22NO6P-CSGSG-QQKFQFQFEQQ-NH2 (C(C11H22NO6P)SGSGQQKFQFQFEQQ-NH2) [PC-Q11, phosphodiester PC-Q11] | bound | significantly greater antibody response | reliant on CD4^+ T cells | generated by both immunizations in the absence of CD4^+ T cells | IgG3 | – | – | –
(C11H22NO6P)n-CCCCSGSG-QQKFQFQFEQQ-NH2 (CCCCSGSGQQKFQFQFEQQ-NH2; not fully specified; cysteine pairing not given here; also: phosphorylcholine groups (C11H22NO6P) n=1-4, attachment not placed) [PCM-Q11, linear multi-PC conjugate] | increased binding of an anti-PC mAb compared to PC-Q11 nanofibers and PC-BSA | – | reliant on CD4^+ T cells | generated by both immunizations in the absence of CD4^+ T cells | IgG3 | no significant change in the response elicited | significantly greater than i.p. immunization with PC-Q11 | significantly greater for PCM-Q11 immunizations when CD4^+ T cells were present
